Values of other authors as cited in patent US12091408B2, “Store overload-induced calcium release inhibitors and methods for producing and using the same” (UTI Limited Partnership, priority 2013, dated 2024).

Legend:
[1] = tested on: ventricular arrhythmias and sudden death; conditions: mice, reported; via enhanced FKBP12.6 binding to RyR2; cited from earlier work
β-adrenergic receptor = conditions: previously shown by the inventors; cited from earlier work

Row | Structure (SMILES) | suppression of ventricular arrhythmias and sudden death [1] | β-blockade (order of magnitude) (β-adrenergic receptor)
1 | COc1ccc2c(c1)CN(C(=O)CCN1CCC(Cc3ccccc3)CC1)CCS2.Cl [Compound 102, JTV519] | suppress ventricular arrhythmias and sudden death in mice | –
2 | COc1ccccc1OCCNCC(O)COc1cccc2[nH]c3ccccc3c12 (stereo not drawn) [Compound 1, carvedilol] | – | nanomolar
3 | COc1ccc2c(c1)CN(C)CCS2 [Compound 99, S107] | suppress ventricular arrhythmias and sudden death in mice | –
